Consider 27 molecules from ChEMBL document CHEMBL3425504, “Lead optimization of spiropyrazolopyridones: a new and potent class of dengue virus inhibitors” (ACS Med Chem Lett, 2015).

Converted amounts (≈) assume the structure as drawn. The source made the active and inactive calls. No cut-off for these calls is given here.

The subject of data set [1] is dengue virus type 2. The data set can be described thus: Antiviral activity against dengue virus 2 infected in BHK21 cells incubated for 48 hrs by CFI assay. It counts as functional, organism-based. The note with it: BHK-21, 48 h.
Data set [2] in a line: Cytotoxicity against human HepG2 cells incubated for 96 hrs by CCK8 assay. Type of data set: cell-based. (Tetrazolium dyes change colour on reduction, which living cells bring about.)
Data set [3] relates to dengue virus type 2. Kind of data set: Antiviral activity against dengue virus 2 infected in human A549 cells incubated for 48 hrs by viral titer reduction assay. Type of data set: functional, organism-based. Conditions: A549, 48 h.
Data set [4] is described as follows: Lipophilicity, log P of the compound. Type of data set: physicochemical. The note with it: octanol/water.
A short description of data set [5]: Hepatic extraction ratio in mouse liver microsomes. It counts as ADME. The note with it: read-out: ERH. (Microsomes from liver hold many membrane-bound enzymes, among them those of drug oxidation.)
The nature of data set [6]: Half life in mouse liver microsomes. It counts as ADME.
The nature of data set [7]: Cmax in Wistar rat at 25 mg/kg, po after 0.17 to 24 hrs by LC-MS/MS method. The note with it: in vivo. It counts as ADME, organism-based. Set-up: dose 25 mg/kg, route oral.
Data set [8] in a line: Tmax in Wistar rat at 25 mg/kg, po after 0.17 to 24 hrs by LC-MS/MS method. Set-up: dose 25 mg/kg, route oral. The note with it: in vivo. Type of data set: ADME, organism-based.
Data set [9] in a line: AUC (0 to 24 hrs) in Wistar rat at 25 mg/kg, po after 0.17 to 24 hrs by LC-MS/MS method. It counts as ADME, organism-based. Set-up: time < 24 hr, dose 25 mg/kg, route oral. Conditions: plasma.
Data set [10] in a line: Absolute oral bioavailability in Wistar rat at 25 mg/kg after 0.17 to 24 hrs by LC-MS/MS method. It counts as ADME, organism-based. The note with it: in vivo.
For data set [11], the system named is dengue virus type 2. Kind of data set: Antiviral activity against dengue virus 2 TSV01 in AG129 mouse model of dengue viremia assessed as log reduction in virus plaques at 50 mg/kg, po BID for 3 days relative to untreated control. Type of data set: functional.
Data set [12] in a line: Solubility in pH 6.8 buffer.
Data set [13] in a line: Plasma clearance in Wistar rat at 5 mg/kg, iv after 0.17 to 24 hrs by LC-MS/MS method.
Data set [14] is described as follows: Terminal half-life in Wistar rat at 5 mg/kg, iv after 0.17 to 24 hrs by LC-MS/MS method. The note with it: in vivo, read-out: beta t1/2 (converted).
For another data set, the system named is Rattus norvegicus. Kind of data set: Volume of distribution at steady state in Wistar rat at 5 mg/kg, iv after 0.17 to 24 hrs by LC-MS/MS method. The note with it: in vivo.
The subject of data set [15] is dengue virus type 2. The data set can be described thus: Antiviral activity against dengue virus 2 TSV01 in AG129 mouse model of dengue viremia assessed as log reduction in virus plaques at 100 mg/kg, po QD for 3 days relative to untreated control.
In data set [16] the test system is dengue virus type 2. The data set can be described thus: Antiviral activity against dengue virus 2 TSV01 in AG129 mouse model of dengue viremia assessed as log reduction in virus plaques at 25 mg/kg, po BID for 3 days relative to untreated control. Type of data set: functional, organism-based. Set-up: dose 25 mg/kg.

For orientation: EC50 means the concentration that produces a half-maximal response. High values mean weaker potency, low ones greater potency. What is called CC50 is the concentration that lowers cell viability or growth by half. The low end stands for greater toxicity to the cells, the high end for lower toxicity to the cells. `COc1ccc2c(c1)C1(CC(=O)Nc3c1cnn3Cc1ccc(Cl)cc1)C(=O)N2` (racemic) returned an EC50 with dengue virus type 2 [1] of 2300 nM. The CC50 at 96 h in [2] is > 10 µM.
A word on the logP: it is the decadic logarithm of the partition coefficient of the neutral form, usually between octanol and water. The low end stands for a more hydrophilic compound, the high end for a more lipophilic compound. By Cmax is commonly meant the peak of the concentration-time curve. One may read the Tmax as the time at which the peak concentration occurs. By AUC(0-t) is commonly meant the area under the concentration-time curve up to a stated or last time point. A lower AUC(0-t) goes with low exposure. The term bioavailability denotes the share of a dose that reaches the circulation, judged against a reference dose that is usually intravenous. A high value points to good availability. The term solubility denotes the dissolved amount per volume that the medium holds. A higher solubility goes with much dissolved substance. In general, clearance refers to the volume of plasma or blood freed of the substance per unit of time. A low value points to inefficient removal. As a reminder, the Vdss is a proportionality between amount in the body and measured concentration, not a real space. For the molecule `O=C1C[C@]2(C(=O)Nc3ccc(Cl)cc32)c2cnn(Cc3ccc(Cl)cn3)c2N1`, the EC50 in the data set with dengue virus type 2 [1] was found to be 230 nM; in the data set with dengue virus type 2 [3] it was 42 nM. The same molecule had a CC50 at 96 h in data set [2] of 33 µM. Further, in data set [4], the logP came out at 2.8. Besides, the hepatic extraction ratio in [5] came to 0.71. The values for the half-life in data set [6] and in data set [14] were 24 min and 78 min, respectively. Besides, the concentration in data set [7] peaked (Cmax) at 3860 ng/mL. The Tmax in data set [8] was 0.17 h. The molecule further had an AUC(0-t) at 24 h in [9] of 13800 ng·h/mL. The same molecule had a bioavailability in data set [10] of 63%. The FC with dengue virus type 2 [11] and in the data set on dengue virus type 2 [15] was 1.9 throughout. For the same molecule, in data set [12], the solubility was 504 µM (≈ 209 µg/mL). In addition, in [13], the clearance was 18.8 mL/min/kg. In the data set with Rattus norvegicus, this molecule registered a Vdss of 3 L/kg.
For `O=C1Nc2ccc(Cl)cc2C12CCNc1c2cnn1Cc1ccc(Cl)cc1` (racemic), the EC50 with dengue virus type 2 [1] is 4000 nM. The same molecule had a CC50 at 96 h in data set [2] of 8.1 µM.
Taken in the same sequence, the figures for `O=C1CC2(CNc3ccc(Cl)cc32)c2cnn(Cc3ccc(Cl)cc3)c2N1` (racemic) were 1100 nM and > 10 µM.
As to `O=C1CC2(C(=O)Nc3ccc(Cl)cc32)c2cnn(Cc3ccc(Cl)cc3)c2N1` (racemic), the EC50 in the data set with dengue virus type 2 [1] is 51 nM.
Turning to `CN1C(=O)[C@]2(CC(=O)Nc3c2cnn3Cc2ccc(Cl)cc2)c2cc(Cl)ccc21`, in the data set with dengue virus type 2 [1], the midpoint of the response, the EC50, lay at 6 nM. Also, the CC50 at 96 h in data set [2] is > 10 µM. The logP in data set [4] was determined as 4.6. In addition, the hepatic extraction ratio in data set [5] came out at 0.91. In data set [6], this molecule yielded a half-life of 5.8 min. The same molecule came in with a solubility in [12] of 161 µM (≈ 68.8 µg/mL).
Molecule `O=C1CC2(C(=O)Nc3ccc(Cl)cc32)c2cnn(Cc3ccc(C(F)(F)F)cc3)c2N1` (racemic) yielded an EC50 in the data set on dengue virus type 2 [1] of 25 nM. The CC50 at 96 h in [2] is > 10 µM.
Taken in the same sequence, the figures for `O=C1C[C@@]2(C(=O)Nc3ccc(Cl)cc32)c2cnn(Cc3ccc(Cl)cn3)c2N1` were 18400 nM and > 10 µM.
On the same counts, the results for `O=C1CC2(C(=O)Nc3ccc(Cl)cc32)c2cnn(Cc3ccc(Cl)nc3)c2N1` (racemic) are 32800 nM and > 10 µM.
On the same counts, the results for `CN1C(=O)C2(CC(=O)Nc3c2cnn3Cc2ccc(Cl)cc2)c2cc(Cl)ccc21` (racemic) are 11 nM and > 10 µM.
As to `O=C1C[C@]2(C(=O)Nc3ccc(Cl)cc32)c2cnn(Cc3ccc(Cl)cc3)c2N1`, the EC50 with dengue virus type 2 [1] and in the data set with dengue virus type 2 [3] was 12 nM each time. Also, in data set [2], the CC50 at 96 h was > 10 µM. Further, the logP in data set [4] was 4.9. Moreover, the hepatic extraction ratio in [5] came to 0.66. The half-life in data set [6] was 31 min; in [14], 228 min. In data set [7], this molecule displayed a Cmax of 780 ng/mL. In data set [8], the time of peak concentration (Tmax) turned out to be 2 h. The same molecule showed an AUC(0-t) at 24 h in data set [9] of 9500 ng·h/mL. In data set [10], this molecule had a bioavailability of 33%. For the same molecule, in data set [12], the concentration in solution (solubility) came to 11 µM (≈ 4.55 µg/mL). Also, the clearance in [13] worked out at 15.1 mL/min/kg. Moreover, the Vdss in the data set on Rattus norvegicus was found to be 4.3 L/kg.
As to `O=C1CC2(C(=O)Nc3ccc(Br)cc32)c2cnn(Cc3ccc(Cl)cc3)c2N1` (racemic), in the data set with dengue virus type 2 [1], the EC50 stood at 50 nM. Also, the CC50 at 96 h in [2] is > 10 µM.
On the same counts, the results for `CN1C(=O)[C@@]2(CC(=O)Nc3c2cnn3Cc2ccc(Cl)cc2)c2cc(Cl)ccc21` are 772 nM and > 10 µM.
Taken in the same sequence, the figures for `O=C1CC2(C(=O)Nc3ccc(Cl)cc32)c2cnn(Cc3ncc(Cl)cn3)c2N1` (racemic) were 85300 nM and > 10 µM.
On the same counts, the results for `O=C1CC2(C(=O)Nc3ccc(C(F)(F)F)cc32)c2cnn(Cc3ccc(Cl)cc3)c2N1` (racemic) are 1300 nM and > 10 µM.
For `O=C1CC2(C(=O)Nc3ccc(Cl)cc32)c2cnn(Cc3ccccc3Cl)c2N1` (racemic), the 50% effective concentration (EC50) with dengue virus type 2 [1] was found to be 1700 nM. Moreover, the CC50 at 96 h in [2] was > 10 µM.
Taken in the same sequence, the figures for `CN1C(=O)CC2(C(=O)Nc3ccc(Cl)cc32)c2cnn(Cc3ccc(Cl)cc3)c21` (racemic) were 420 nM and > 10 µM.
`O=C1C[C@]2(C(=O)Nc3ccc(Cl)cc32)c2cnn(Cc3ccc(C(F)(F)F)cc3)c2N1`: the EC50 in the data set on dengue virus type 2 [1] turned out to be 21 nM. Moreover, the CC50 at 96 h in data set [2] was > 10 µM. In data set [4], the logP came to 4.1. Also, the hepatic extraction ratio in data set [5] turned out to be 0.49. The molecule also showed a half-life in data set [6] of 62 min. The molecule also came in with a solubility in data set [12] of 27 µM (≈ 12.1 µg/mL).
`O=C1CC2(C(=O)Nc3ccc(Cl)cc32)c2cnn(Cc3cccc(Cl)c3)c2N1` (racemic) returned a 50% effective concentration (EC50) in the data set with dengue virus type 2 [1] of 3900 nM. Also, the CC50 at 96 h in data set [2] was > 10 µM.
Molecule `O=C1CC2(C(=O)Nc3ccc(Cl)cc32)c2cnn(CCc3ccc(Cl)cc3)c2N1` (racemic) gave an EC50 in the data set with dengue virus type 2 [1] of 7200 nM. Moreover, the CC50 at 96 h in data set [2] was > 10 µM.
The molecule `O=C1C[C@@]2(C(=O)Nc3ccc(Cl)cc32)c2cnn(Cc3ccc(Cl)cc3)c2N1` displayed an EC50 in the data set with dengue virus type 2 [1] of 2710 nM.
In the case of `O=C1C[C@@]2(C(=O)Nc3ccc(Cl)cc32)c2cnn(Cc3ccc(C(F)(F)F)cc3)c2N1`, the EC50 in the data set with dengue virus type 2 [1] turned out to be 3900 nM. Besides, the CC50 at 96 h in data set [2] was > 10 µM.
Taken in the same sequence, the figures for `COc1ccc(Cn2ncc3c2NC(=O)CC32C(=O)Nc3ccc(Cl)cc32)cc1` (racemic) were 6200 nM and > 10 µM.
With `C#C[C@@]1(O)[C@H](O)[C@@H](CO)O[C@H]1n1ccc2c(N)ncnc21`, in the data set on dengue virus type 2 [16], the inhibition result was “Active”.
In the data set on dengue virus type 2 [1], `O=C1CC2(C(=O)Nc3ccc(Cl)cc32)c2cnn(Cc3ccc(Cl)cn3)c2N1` (racemic) yielded a 50% effective concentration (EC50) of 670 nM. In data set [2], this molecule had a CC50 at 96 h of 33 µM.
On the same counts, the results for `O=C1CC2(C(=O)Nc3ccc(Cl)cc32)c2cnn(CC3CCC(F)(F)CC3)c2N1` (racemic) are 22500 nM and > 10 µM.
In the data set on dengue virus type 2 [1], `O=C1CC2(C(=O)Nc3ccc(Cl)cc32)c2cnn(-c3ccc(Cl)cc3)c2N1` (racemic) displayed an EC50 of 32500 nM. Moreover, in data set [2], the CC50 at 96 h is > 10 µM.
